US12545659B2, “IRAK degraders and uses thereof” (Kymera Therapeutics, Inc., priority 2019, dated 2026)

The molecules below were run against T1, IRAK4 (Homo sapiens, UniProt Q9NWZ3) (assay: IRAK4 MSD Degradation in OCI-LY10). Conditions: OCI-LY10 cells, 4 hrs incubation, read-out: IRAK4 degradation in OCI-LY10 at 4 hrs: DC50.
T1 construct: endogenous in cells; host or cells: OCI-LY10
T1 sequence (Q9NWZ3 1-460): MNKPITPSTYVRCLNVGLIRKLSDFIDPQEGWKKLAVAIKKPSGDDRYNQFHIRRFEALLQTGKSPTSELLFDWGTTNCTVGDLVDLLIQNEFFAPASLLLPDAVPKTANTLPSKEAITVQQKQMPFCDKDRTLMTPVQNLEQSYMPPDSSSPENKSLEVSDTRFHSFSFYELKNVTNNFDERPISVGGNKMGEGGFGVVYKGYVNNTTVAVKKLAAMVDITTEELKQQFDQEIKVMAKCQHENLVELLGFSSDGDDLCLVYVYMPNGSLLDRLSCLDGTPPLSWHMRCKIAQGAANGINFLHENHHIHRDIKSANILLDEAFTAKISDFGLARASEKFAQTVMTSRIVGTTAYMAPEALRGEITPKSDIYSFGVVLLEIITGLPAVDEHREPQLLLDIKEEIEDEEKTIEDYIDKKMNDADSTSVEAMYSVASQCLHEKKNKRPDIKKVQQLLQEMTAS
Assay type: cell-based
Experimental: Degradation of IRAK4 in OCI-LY10 was quantitatively measured using Meso Scale Discovery technology. […] Compounds were then added to the assay plates with a final top concentration of 1 to 10 μM in a 1:3 dilution series with total of 8 doses. The assay plates were then incubated for 4 to 24 hours at 37° C. under 5% C02. […] To prepare MSD assay plates (Meso Scale Discovery Catalog number L15XA-3), the plates were coated with […] capture antibody (mouse Anti-IRAK4 antibody [2H9], ab119942) in PBS, at 40 μL/well. […] Cell lysates were then added to MSD assay plates and the plates were incubated at room temperature for 1 hour. The plates were then washed 3 times with 150 μL/well TBST buffer and 25 μL/well primary detection antibody (rabbit Anti-IRAK4 antibody [Y279], from Abcam. Catalog number ab32511, 1 μg/mL). The assay plates were then incubated at room temperature for 1 hour, washed 3 times with 150 μL/well TBST buffer and 25 μL/well secondary detection antibody, SULFO-TAG anti-rabbit antibody were added (anti rabbit antibody from Meso Scale Discovery, Catalog number R32AB-1, 1 μg/mL). The assay plates were then incubated at room temperature for 1 hour, washed 3 times with 150 μL/well TBST buffer, and 150 μL/well MSD reading buffer (Meso Scale Discovery catalog number R92TC-2) was added. The plates were then analyzed by a MSD reader (Meso Scale Discovery, Model Quick Plex SQ 120). The data was then analyzed by software Prism 7.0 from GraphPad and the dose-depended IRAK4 degradation were fit using a three-parameter logistic equation to calculate DC50.
The letter codes for IRAK4 […] include: A (<0.05 μM); B (0.05-0.1 μM); C (0.1-0.5 μM); D (0.5-1.0 μM); and E (>1.0 μM).

Row | Compound | DC50 [nM]
1 | CN(C[C@H]1CC[C@H](n2ncc3cc(NC(=O)c4cccc(C(F)(F)F)n4)c(C(C)(C)O)cc32)CC1)C1CCN(Cc2cccc3c2n(C)c(=O)n3C2CCC(=O)NC2=O)CC1 (stereo partly shown) [I-34] | 500 to 1000
2 | CN(CC1CCN(c2cccc3c2C(=O)N(C2CCC(=O)NC2=O)C3=O)CC1)C[C@H]1CC[C@H](n2cc3cc(NC(=O)c4cccc(C(F)(F)F)n4)c(C(C)(C)O)cc3n2)CC1 (stereo partly shown) [I-40] | 50 to 100
3 | CN(C(=O)[C@H]1CC[C@H](n2cc3cc(NC(=O)c4cccc(C(F)(F)F)n4)c(C(C)(C)O)cc3n2)CC1)C1CCN(Cc2cccc3c2n(C)c(=O)n3C2CCC(=O)NC2=O)CC1 (stereo partly shown) [I-43] | < 50
4 | Cn1c(=O)n(C2CCC(=O)NC2=O)c2cccc(CN3CC4(CCN(C(=O)[C@H]5CC[C@H](n6cc7cc(NC(=O)c8cccc(C(F)(F)F)n8)c(C(C)(C)O)cc7n6)CC5)CC4)C3)c21 (stereo partly shown) [I-44] | < 50
5 | Cn1c(=O)n(C2CCC(=O)NC2=O)c2cccc(CN3CC4(C3)CN(C(=O)[C@H]3CC[C@H](n5cc6cc(NC(=O)c7cccc(C(F)(F)F)n7)c(C(C)(C)O)cc6n5)CC3)C4)c21 (stereo partly shown) [I-45, N-[2-[4-[6-[[1-(2,6-dioxo-3-piperidyl)-3-methyl-2-oxo-benzimidazol-4-yl]methyl]-2,6-diazaspiro[3.3]heptane-2-carbonyl]cyclohexyl]-6-(1-hydroxy-1-methyl-ethyl)indazol-5-yl]-6-(trifluoromethyl)pyridine-2-carboxamide] | 50 to 100
6 | Cc1cccc(C(=O)Nc2cc3cn([C@H]4CC[C@H](CN(C)C5CCN(Cc6cccc7c6n(C)c(=O)n7C6CCC(=O)NC6=O)CC5)CC4)nc3cc2C(C)(C)O)n1 (stereo partly shown) [I-48] | < 50
7 | Cn1c(=O)n(C2CCC(=O)NC2=O)c2cccc(CN3CC4(CN(Cc5ccc(-n6cc7cc(NC(=O)c8cccc(C(F)(F)F)n8)c(C(C)(C)O)cc7n6)cc5)C4)C3)c21 (stereo not shown) [I-49] | 50 to 100
8 | CN(C[C@H]1CC[C@H](n2cc3cc(NC(=O)c4cnn5cccnc45)c(C(C)(C)O)cc3n2)CC1)C1CCN(Cc2cccc3c2n(C)c(=O)n3C2CCC(=O)NC2=O)CC1 (stereo partly shown) [I-50] | < 50

Next, values leading:

Row | DC50 [nM] | Compound
9 | < 50 | Cn1c(=O)n(C2CCC(=O)NC2=O)c2cccc([C@H]3CC[C@H](N(C)C[C@H]4CC[C@H](n5cc6cc(NC(=O)c7cccc(C(F)(F)F)n7)c(C(F)F)cc6n5)CC4)CC3)c21 (single isomer, unassigned) [I-164, N-[6-(difluoromethyl)-2-[4-[[[4-[1-(2,6-dioxo-3-piperidyl)-3-methyl-2-oxo-benzimidazol-4-yl]cyclohexyl]-methyl-amino]methyl]cyclohexyl]indazol-5-yl]-6-(trifluoromethyl)pyridine-2-carboxamide]
10 | < 50 | Cn1c(=O)n(C2CCC(=O)NC2=O)c2cccc([C@H]3CC[C@@H](N(C)C[C@H]4CC[C@H](n5cc6cc(NC(=O)c7cccc(C(F)(F)F)n7)c(C(F)F)cc6n5)CC4)CC3)c21 (single isomer, unassigned) [I-165, N-[6-(difluoromethyl)-2-[4-[[[4-[1-(2,6-dioxo-3-piperidyl)-3-methyl-2-oxo-benzimidazol-4-yl]cyclohexyl]-methyl-amino]methyl]cyclohexyl]indazol-5-yl]-6-(trifluoromethyl)pyridine-2-carboxamide]
11 | < 50 | Cn1c(=O)n(C2CCC(=O)NC2=O)c2cccc([C@H]3CC[C@@H](N(C)C[C@H]4CC[C@H](n5cc6cc(NC(=O)c7cccc(C(F)(F)F)n7)c(C(C)(C)O)cc6n5)CC4)CC3)c21 (single isomer, unassigned) [I-174, N-[2-[4-[[[4-[1-(2,6-dioxo-3-piperidyl)-3-methyl-2-oxo-benzimidazol-4-yl]cyclohexyl]-methyl-amino]methyl]cyclohexyl]-6-(1-hydroxy-1-methyl-ethyl)indazol-5-yl]-6-(trifluoromethyl)pyridine-2-carboxamide]
12 | < 50 | Cn1c(=O)n(C2CCC(=O)NC2=O)c2cccc([C@H]3CC[C@H](N(C)C[C@H]4CC[C@H](n5cc6cc(NC(=O)c7cccc(C(F)(F)F)n7)c(C(C)(C)O)cc6n5)CC4)CC3)c21 (single isomer, unassigned) [I-175, N-[2-[4-[[[4-[1-(2,6-dioxo-3-piperidyl)-3-methyl-2-oxo-benzimidazol-4-yl]cyclohexyl]-methyl-amino]methyl]cyclohexyl]-6-(1-hydroxy-1-methyl-ethyl)indazol-5-yl]-6-(trifluoromethyl)pyridine-2-carboxamide]
13 | 50 to 100 | Cn1c(=O)n(C2CCC(=O)NC2=O)c2cccc(CN3CCOC4(CCN(Cc5ccc(-n6cc7cc(NC(=O)c8cccc(C(F)(F)F)n8)c(C(C)(C)O)cc7n6)cc5)CC4)C3)c21 (stereo not shown) [I-52]
14 | < 50 | Cn1c(=O)n(C2CCC(=O)NC2=O)c2cccc(CCC3CC4(CCN(C[C@H]5CC[C@H](n6cc7cc(NC(=O)c8cccc(C(F)(F)F)n8)c(C(C)(C)O)cc7n6)CC5)CC4)C3)c21 (stereo partly shown) [I-53]
15 | 50 to 100 | CN(C[C@H]1CC[C@H](n2cc3cc(NC(=O)c4ccccn4)c(C(C)(C)O)cc3n2)CC1)C1CCN(Cc2cccc3c2n(C)c(=O)n3C2CCC(=O)NC2=O)CC1 (stereo partly shown) [I-54]
16 | < 50 | Cn1c(=O)n(C2CCC(=O)NC2=O)c2cccc(CCN3CC4(CCN(C[C@H]5CC[C@H](n6cc7cc(NC(=O)c8cccc(C(F)(F)F)n8)c(C(C)(C)O)cc7n6)CC5)CC4)C3)c21 (stereo partly shown) [I-55]
17 | < 50 | Cn1c(=O)n(C2CCC(=O)NC2=O)c2cccc(CC3CC4(CCN(C[C@H]5CC[C@H](n6cc7cc(NC(=O)c8cccc(C(F)(F)F)n8)c(C(C)(C)O)cc7n6)CC5)CC4)C3)c21 (stereo partly shown) [I-56]
18 | < 50 | Cn1c(=O)n(C2CCC(=O)NC2=O)c2cccc(CN3CC4(CCN(C[C@H]5CC[C@H](n6cc7cc(NC(=O)c8cccc(C(F)(F)F)n8)c(C(C)(C)O)cc7n6)CC5)CC4)C3)c21 (stereo partly shown) [I-57]

Same assay, conditions: OCI-LY10 cells, 24 hrs incubation, read-out: IRAK4 degradation in OCI-LY10 at 24 hrs: DC50

Row | DC50 [nM] | Compound
19 | 50 to 100 | CN(CCCOCCCNc1cccc2c1C(=O)N(C1CCC(=O)NC1=O)C2=O)C[C@H]1CC[C@H](n2cc3cc(NC(=O)c4cccc(C(F)(F)F)n4)c(C(C)(C)O)cc3n2)CC1 (stereo partly shown) [I-31]
20 | < 50 | CN(C[C@H]1CC[C@H](n2cc3cc(NC(=O)c4cccc(C(F)(F)F)n4)c(C(C)(C)O)cc3n2)CC1)C1CCC2(CC1)CC(CNc1cccc3c1C(=O)N(C1CCC(=O)NC1=O)C3=O)C2 (stereo partly shown) [I-32]
21 | 50 to 100 | O=C1CCC(N2C(=O)c3cccc(NCCCOCC4CCN(C[C@H]5CC[C@H](n6cc7cc(NC(=O)c8cccc(C(F)(F)F)n8)c(C(F)F)cc7n6)CC5)CC4)c3C2=O)C(=O)N1 (stereo partly shown) [I-33]
22 | < 50 | CC(C)(O)c1cc2nn([C@H]3CC[C@H](CN4CCC5(CC4)CC(Nc4cccc6c4C(=O)N(C4CCC(=O)NC4=O)C6=O)C5)CC3)cc2cc1NC(=O)c1cccc(C(F)(F)F)n1 (stereo partly shown) [I-35, N-[2-[4-[[2-[[2-(2,6-dioxo-3-piperidyl)-1,3-dioxo-isoindolin-4-yl]amino]-7-azaspiro [3.5]nonan-7-yl]methyl]cyclohexyl]-6-(1-hydroxy-1-methyl-ethyl)indazol-5-yl]-6-(trifluoromethyl)pyridine-2-carboxamide]
23 | < 50 | CN(CCCO[C@H]1C[C@H](Nc2cccc3c2C(=O)N(C2CCC(=O)NC2=O)C3=O)C1)C[C@H]1CC[C@H](n2cc3cc(NC(=O)c4cccc(C(F)(F)F)n4)c(C(C)(C)O)cc3n2)CC1 (stereo partly shown) [I-41]
24 | < 50 | CC(C)(O)c1cc2nn([C@H]3CC[C@H](CN4CCC5(CC4)CC(CNc4cccc6c4C(=O)N(C4CCC(=O)NC4=O)C6=O)C5)CC3)cc2cc1NC(=O)c1cccc(C(F)(F)F)n1 (stereo partly shown) [I-42]
25 | 50 to 100 | O=C1CCC(N2C(=O)c3cccc(NCC4CC5(CCN(C[C@H]6CC[C@H](n7cc8cc(NC(=O)c9cccc(C(F)(F)F)n9)c(C(F)F)cc8n7)CC6)CC5)C4)c3C2=O)C(=O)N1 (stereo partly shown) [I-46]
26 | < 50 | Cc1cccc(C(=O)Nc2cc3cn([C@H]4CC[C@H](CN(C)[C@H]5CC[C@H](Nc6cccc7c6C(=O)N(C6CCC(=O)NC6=O)C7=O)CC5)CC4)nc3cc2C(C)(C)O)n1 (stereo partly shown) [I-47]

Row | Compound | DC50 [nM]
27 | COc1cc2nn([C@H]3CC[C@H](CN4CCC5(CC4)CC(CCNc4cccc6c4C(=O)N(C4CCC(=O)NC4=O)C6=O)C5)CC3)cc2cc1NC(=O)c1cccc(C(C)(F)F)n1 (single isomer, unassigned) [I-128] | 50 to 100
28 | COc1cc2nn([C@H]3CC[C@H](CN4CCC5(CC4)CC(CCNc4cccc6c4C(=O)N(C4CCC(=O)NC4=O)C6=O)C5)CC3)cc2cc1NC(=O)c1cccc(C(C)(F)F)n1 (single isomer, unassigned) [I-129] | 50 to 100
